The source made the active and inactive calls. The calls are words filed in the database; no cut-off is given here.
Tested on: Mycobacterium tuberculosis
Experiment: Antimycobacterial activity against Mycobacterium tuberculosis overexpressing Rv0560c-OE in iron-free GAST medium at 0.04 to 10 uM after 8 days by two fold serial dilution method
Type: functional, organism-based

With `Nc1ncnc2c1ncn2[C@@H]1O[C@H](COS(=O)(=O)NC(=O)c2ccccc2O)[C@@H](O)[C@H]1O` the Activity was “Active”.
